We go through four compounds from ChEMBL document CHEMBL1129816, “Synthesis of 4-trifluoromethylsteroids: A novel class of steroid 5-reductase inhibitors” (Bioorg Med Chem Lett, 1997).

The nature of assay [1]: In vitro inhibitory activity against Steroid 5-alpha-reductase by using enzymic kinetics method.
Assay [2] can be described thus: In vitro inhibitory activity against Steroid 5-alpha-reductase by using isotope method.

One may read the Ki as the dissociation constant of the complex between target and ligand, obtained from inhibition or displacement. Lower therefore signals a stronger hold on the target. For `C[C@]12CCC(=O)C(C(F)(F)F)=C1CCC1C2CC[C@]2(C)C(=O)CCC12` (stereo partly drawn), the Ki in assay [1] was 28.8 nM; in assay [2], 95.2 nM.

Consider `CC(C)(C)NC(=O)[C@H]1CCC2C3CCC4=C(C(F)(F)F)C(=O)CC[C@]4(C)C3CC[C@@]21C` (stereo partly drawn), for which the figures for the Ki in assay [1] and in assay [2] were 20.2 nM and 20.9 nM, respectively.

On to `CC(=O)[C@H]1CCC2C3CCC4=C(C(F)(F)F)C(=O)CC[C@]4(C)C3CC[C@@]21C` (stereo partly drawn), for which the Ki in assay [1] and in assay [2] was more than 1000 nM each time.

On to `CC(C)(C)NC(=O)[C@H]1CC[C@H]2[C@@H]3CC[C@H]4NC(=O)C=C[C@]4(C)[C@H]3CC[C@]12C` [FINASTERIDE], for which the inhibitory constant (Ki) turned out to be 54.7 nM in assay [1] and 88.2 nM in assay [2].
